pEC50: −log10 of the molar value.

The text below walks through data of patent publication US20240092770A1, “Heterocycle RMB39 Modulators” (Recursion Pharmaceuticals, Inc., priority 2022, published 2024).

The assay has as its target RBM39 and the DCAF15 complex (RBM39-Flag / His-DCAF15-DDA1-DDB1) (Homo sapiens (Human), UniProt Q14498+Q66K64). The assay can be described thus: DCAF15 RBM39 complex formation TR-FRET assay. It is filed as binding. As to conditions: RBM39(R150-D331) 3xFlag 50 nM, His-DCAF15-DDA1-DDB1 10 nM, 60 min room temperature. As for the experimental part:
A TR-FRET assay was used to assess the effect of compounds disclosed herein on the interaction between RBM39 and the DCAF15 complex. Test compounds were dissolved to form a 10 mM DMSO stock solution. A 45 μL aliquot of the stock solution was transferred to a 384 pp-plate, and a threefold, 8-point dilution was performed via transferring 15 μL compound solution into 30 μL of DMSO. The plates were then spun at room temperature at 1,000 RPM for 1 minute.
A 30 nL aliquot of the diluted compound was transferred to a 384 well plate, which was incubated at room temperature for 15 minutes. Next, Solutions 1, 2, and 3 were prepared as described in the below tables. A 5 μL aliquot of Solution 2 was added to each well, followed by 5 μL of Solution 3 to start the reaction. The final volume of each well was 10 μL. The plates were incubated at room temperature for 60 minutes, and then read.
Next, an RBM39 (R150-D331) 3× Flag used in TR-FRET assay was prepared:
Recombinant RBM39 protein is composed of the R1R2 of RBM39 (aa 150 to 331; UniProt: Q14498). The coding sequence was sub-cloned into pGEX4T-1-RBM39-flag vector, expressed as a GST-fusion protein with N-terminal TEV protease cleavage site. A 3× Flag tag was added to the C-terminal of R1R2 used in a FRET assay.
On to `CC(C)(C)c1cc(S(=O)(=O)Nc2cccc3c(C#N)c[nH]c23)on1` [Compound 104], for which the pEC50 was 6.89. Compound `N#Cc1c[nH]c2c(NS(=O)(=O)c3csc(C(F)F)n3)cccc12` [Compound 105] gave a pEC50 of 6.52. Turning to `N#Cc1c[nH]c2c(NS(=O)(=O)c3cnc(C4CC4)o3)cccc12` [Compound 107, N-(3-cyano-1H-indol-7-yl)-2-cyclopropyl-1,3-oxazole-5-sulfonamide], the pEC50 was 6.49. In turn, `Cc1ncc(S(=O)(=O)Nc2cccc3c(C#N)c[nH]c23)o1` [Compound 108] gave a negative logarithm of the EC50 (pEC50) of 5.71. For the compound `Cc1nc(Br)sc1S(=O)(=O)Nc1cccc2c(C#N)c[nH]c12` [Compound 109], the negative logarithm of the EC50 (pEC50) is 5.68. The compound `CC(C)(C)c1ncc(S(=O)(=O)Nc2cccc3c(C#N)c[nH]c23)o1` [Compound 110] gave a pEC50 of 6.14. On to `Cc1ccc(NS(=O)(=O)c2ncc(P(C)(C)=O)s2)c2[nH]cc(C#N)c12` [Compound 111, N-(3-cyano-4-methyl-1H-indol-7-yl)-5-(dimethylphosphoryl)thiazole-2-sulfonamide], for which the pEC50 was 5.79. With `Cc1ccc(NS(=O)(=O)c2ncc(C(=O)N3CCOCC3)s2)c2[nH]cc(C#N)c12` [Compound 112] the figure was 5.87; with `N#Cc1c[nH]c2c(NS(=O)(=O)c3nccs3)ccc(F)c12` [Compound 114], 5.49; with `N#Cc1c[nH]c2c(NS(=O)(=O)c3ncc(Cl)s3)cccc12` [Compound 116], 5.67. In turn, `Cc1ccc(NS(=O)(=O)c2cnc(C(F)F)s2)c2[nH]cc(C#N)c12` [Compound 117] gave a pEC50 of 7.00. `CCc1ncc(S(=O)(=O)Nc2ccc(C)c3c(C#N)c[nH]c23)o1` [Compound 118]: the pEC50 is 6.77.

In turn, `N#Cc1c[nH]c2c(NS(=O)(=O)c3cnc(C(F)F)s3)cccc12` [Compound 120] gave a pEC50 of 6.44.

Turning to `CNC(=O)c1cnc(S(=O)(=O)Nc2ccc(C)c3c(C#N)c[nH]c23)s1` [Compound 126], the pEC50 is 6.02. Consider `Cc1ccc(NS(=O)(=O)c2ncc(C(=O)N(C)C)s2)c2[nH]cc(C#N)c12` [Compound 127], for which the pEC50 was 6.02. `CCN(CC)C(=O)c1csc(S(=O)(=O)Nc2ccc(C)c3c(C#N)c[nH]c23)n1` [Compound 128] had a pEC50 of 6.19. In the case of `Cc1ccc(NS(=O)(=O)c2ncc(C(=O)NCCO)s2)c2[nH]cc(C#N)c12` [Compound 129], the pEC50 is 5.74. Next, `Cc1ccc(NS(=O)(=O)c2ncc(C(=O)N3CCCC3)s2)c2[nH]cc(C#N)c12` [Compound 130]: 5.95; `Cc1ccc(NS(=O)(=O)c2ncc(C(=O)N3CCN(C)CC3)s2)c2[nH]cc(C#N)c12` [Compound 131]: 5.42. In the case of `N#Cc1c[nH]c2c(NS(=O)(=O)c3nccs3)cc(F)cc12` [Compound 132], the pEC50 is 5.18. `O=S(=O)(Nc1cccc2c(Cl)c[nH]c12)c1nccs1` [Compound 133]: the pEC50 was 5.57. As for `N#Cc1c[nH]c2c(NS(=O)(=O)c3nc(C(F)(F)F)cs3)cccc12` [Compound 134], the pEC50 is 5.75. For the compound `Cc1ccc(NS(=O)(=O)c2cc(C(C)C)no2)c2[nH]cc(C#N)c12` [Compound 135], the pEC50 is 7.33. Regarding `N#Cc1c[nH]c2c(NS(=O)(=O)c3cnc(Cl)s3)cccc12` [Compound 136], the pEC50 is 6.29. On to `CC(C)c1cc(S(=O)(=O)Nc2cccc3c(C#N)c[nH]c23)on1` [Compound 138], for which the pEC50 is 6.37.

Consider `CCc1nc(S(=O)(=O)Nc2ccc(C)c3c(C#N)c[nH]c23)cn1CC(=O)NC1CC1` [Compound 139], for which the pEC50 was 5.22. `CCc1nc(S(=O)(=O)Nc2ccc(C)c3c(C#N)c[nH]c23)cn1CC(=O)O` [Compound 140] showed a pEC50 of 5.18.

For `Cc1ccc(NS(=O)(=O)c2ncc(C(N)=O)s2)c2[nH]cc(C#N)c12` [Compound 141], the pEC50 was 6.04.

`COCCNC(=O)c1cnc(S(=O)(=O)Nc2ccc(C)c3c(C#N)c[nH]c23)s1` [Compound 142]: the pEC50 is 5.71. `Cc1ccc(NS(=O)(=O)c2ncc(C(=O)N3CCC(O)C3)s2)c2[nH]cc(C#N)c12` (stereo not drawn) [Compound 143] gave a pEC50 of 5.67.

Consider `Cc1ccc(NS(=O)(=O)c2ncc(C(=O)N3CCCCC3)s2)c2[nH]cc(C#N)c12` [Compound 144], for which the pEC50 is 5.81. Compound `CCc1nc(S(=O)(=O)Nc2ccc(F)c3c(Cl)c[nH]c23)c[nH]1` [Compound 146] showed a pEC50 of 6.30. `CCc1nc(S(=O)(=O)Nc2ccc(F)c3c(C#N)c[nH]c23)c[nH]1` [Compound 147] gave a pEC50 of 5.69.

For `N#Cc1c[nH]c2c(NS(=O)(=O)c3nc(C(F)(F)F)cs3)ccc(F)c12` [Compound 148], the pEC50 was 5.88. As for `O=S(=O)(Nc1cc(F)cc2c(Cl)c[nH]c12)c1nc(C(F)(F)F)cs1` [Compound 149], the pEC50 was 6.05. Take `N#Cc1c[nH]c2c(NS(=O)(=O)c3nc(C(F)(F)F)cs3)cc(F)cc12` [Compound 150]: the pEC50 is 5.90. As to `O=S(=O)(Nc1cccc2c(Cl)c[nH]c12)c1nc(C(F)(F)F)cs1` [Compound 151], the pEC50 is 6.46. On to `Cc1nc(S(=O)(=O)Nc2ccc(C)c3c(C#N)c[nH]c23)cs1` [Compound 152], for which the pEC50 is 6.55. In turn, `Cc1nc(S(=O)(=O)Nc2cccc3c(C#N)c[nH]c23)cs1` [Compound 153] had a pEC50 of 6.03. `CCc1nc(S(=O)(=O)Nc2cc(F)cc3c(C#N)c[nH]c23)c[nH]1` [Compound 157] showed a pEC50 of 5.73. `CCc1nc(S(=O)(=O)Nc2cccc3c(Cl)c[nH]c23)c[nH]1` [Compound 158] showed a pEC50 of 6.36. In turn, `O=S(=O)(Nc1ccc(F)c2c(Cl)c[nH]c12)c1nc(C(F)(F)F)cs1` [Compound 159, N-(3-chloro-4-fluoro-1H-indol-7-yl)-4-(trifluoromethyl)-1,3-thiazole-2-sulfonamide] had a pEC50 of 6.35. `Cc1nc(S(=O)(=O)Nc2cccc3c(C#N)c[nH]c23)sc1C` [Compound 160] gave a pEC50 of 6.17.

`Cc1ccc(NS(=O)(=O)c2cn(CC(C)C)cn2)c2[nH]cc(C#N)c12` [Compound 161] gave a pEC50 of 6.01. For `CCCn1cnc(S(=O)(=O)Nc2ccc(C)c3c(C#N)c[nH]c23)c1` [Compound 162], the pEC50 was 6.23. With `N#Cc1c[nH]c2c(NS(=O)(=O)c3nc(Cl)cs3)ccc(F)c12` [Compound 163] the figure was 6.05; with `O=S(=O)(Nc1cccc2c(C(F)(F)F)c[nH]c12)c1nccs1` [Compound 185], 5.99. Next, `O=S(=O)(Nc1cccc2c(C(F)(F)F)c[nH]c12)c1cncs1` [Compound 186]: 6.59. Compound `O=S(=O)(Nc1ccc(F)c2c(Cl)c[nH]c12)c1cncs1` [Compound 187] gave a pEC50 of 6.64.

`Cc1ccc(NS(=O)(=O)c2cncs2)c2[nH]cc(C(F)(F)F)c12` [Compound 198] showed a pEC50 of 7.33. With `N#Cc1c[nH]c2c(NS(=O)(=O)c3cncs3)ccc(F)c12` [Compound 199] the figure was 6.02; with `Cc1ncc(S(=O)(=O)Nc2cccc3c(Cl)c[nH]c23)s1` [Compound 200], 6.68; with `Cc1ncc(S(=O)(=O)Nc2ccc(F)c3c(C#N)c[nH]c23)s1` [Compound 201], 6.41. With `CC(C)(O)c1ncc(S(=O)(=O)Nc2cccc3c(C#N)c[nH]c23)s1` [Compound 202] the figure was 6.62.

For `O=S(=O)(Nc1cccc2c(Cl)c[nH]c12)c1cncs1` [Compound 203], the pEC50 is 6.23. With `O=S(=O)(Nc1cccc2c(Cl)c[nH]c12)c1cnc(C(F)F)s1` [Compound 204] the figure was 6.89; with `N#Cc1c[nH]c2c(NS(=O)(=O)c3cnc(N4CCOCC4)s3)cccc12` [Compound 205], 6.20.

As for `N#Cc1c[nH]c2c(NS(=O)(=O)c3cnsc3)cccc12` [Compound 215], the pEC50 is 6.38. The compound `N#Cc1c[nH]c2c(NS(=O)(=O)c3cnsn3)cccc12` [Compound 254] had a pEC50 of 5.41. Consider `N#Cc1c[nH]c2c(NS(=O)(=O)c3cnns3)cccc12` [Compound 255], for which the pEC50 is 5.93.
